Data set [1] has as its system ear edema induced by xylene. On the set-up: method as in PMID 19023804. As to conditions: ear edema induced by xylene in mice; cited from earlier work.
Data set [2] is described as follows: in vivo. Particulars: for AUC(0-t): AUC0–t; for AUC(0-inf): AUC0–∞; for MRT inf: MRT0–∞. The source says:
The validated UPLC-MS/MS method was used to measure atractylenolides I, II, and III, and atractyloside A simultaneously in rat plasma after oral administration of raw and wheat bran-processed Atractylodis Rhizoma at a dose of 3.75 g/kg. The integrated pharmacokinetics data were estimated by Drug and Statistics 3.0 (BioGuider Medicinal Technology Co. Ltd, Shanghai, China).
A UPLC system (Acquity, Waters, Milford, MA, USA) coupled with a mass spectrometer detector (XEVO-TQ-S, Waters) was used. The separation was performed on an Acquity UPLC BEH C18 column (Waters; 2.1 × 100 mm, 1.7 µm). The mobile phase consisted of acetonitrile (solution A) and ultrapure water with 0.1% methanoic acid (solution B). […] The mobile phase was delivered at a flow rate of 0.30 mL/min. The column and autosampler temperature were maintained at 40 and 10 °C, respectively. The injection volume was 2 µL and the eluent was detected by mass spectrometry with electrospray ionization (ESI) in positive scan mode. The optimized detector parameters were as follows: positive ESI with a capillary voltage of 3.0 kV; desolvation temperature of 400 °C; desolvation gas flow of 800 L/h, core gas flow of 150 L/h, and nebulizer gas flow of 7 bar. Selected multiple reaction monitoring (MRM), using the precursor to product ion combinations of m/z 233.3→187.2, 231.2→185.2, 249.2→231.2, 471.3→203.2, 151.9→110.16, was used to detect atractylenolides I, II, and III, atractyloside A, and the internal standard (IS), acetaminophen, respectively (Table 8).
Plasma samples were extracted by methanol precipitation. The plasma sample (200 µL) was spiked with IS solution (100 µL, 52 ng/mL), extracted with methanol (800 µL) by vortexing for 2 min, centrifuged at 17,108× g for 10 min, and then evaporated to dryness under a gentle stream of nitrogen. The residue was reconstituted in the mobile phase (100 µL), vortexed for 1 min, and centrifuged at 17,108× g for 10 min. Finally, the supernatant (3 µL) was injected into the UPLC-MS/MS system for analysis.
Ten rats were randomly divided into two groups (five per group). The two groups were orally administered raw Atractylodis Rhizoma at a dose of 3.75 g/kg (equal to 0.48, 0.6, 0.68, and 3.11 mg/kg of atractylenolides I, II, and III, and atractyloside A, respectively), and wheat bran-processed Atractylodis Rhizoma extract solution (equal to 0.46, 0.75, 0.56, and 3.03 mg/kg of atractylenolides I, II, and III, and atractyloside A, respectively). Plasma samples (0.3 mL) were collected in heparinized tubes from the orbital sinus at […], 0.25, 0.5, 1, 1.5,2, 3, 4, 6, 8, 10, and 12 h, and were then immediately centrifuged at 17,108× g for 10 min. The supernatant was transferred to clean test tubes and stored at −20 °C until analysis. Pharmacokinetic parameters, including the area under the blood concentration-time curve (AUC0–∞), elimination half-life (t1/2), apparent volume of distribution (Vd/F), and oral clearance (CL/F) were calculated by a noncompartmental method using Drug and Statistics 3.0 (Chinese Pharmacological Society, Shanghai, China). Other parameters were obtained directly from the experimental observations.
The pharmacokinetic parameters of atractylenolides I, II, and III, and atractyloside A were analyzed by using the one-way ANOVA test with SPSS 17.0 (SPSS Inc., Chicago, IL, USA) and linear regression analysis. The integrated concentrations at each time point for the four compounds were calculated based on the AUC weighting approach using equations (1)–(3). The weighting coefficient (Wj) and the total concentration of each compound (∑AUC0–∞) were calculated by: (1) w1=AUC0–∞/∑AUC0–∞ ∑AUC0–∞ = AUC0–∞ AT-I + AUC0–∞ AT-II + AUC0–∞ AT-III + AUC0–∞ atractyloside A(2)

Data set [3] relates to HL-60 cells. As to conditions: via Cu, Zn-superoxide dismutase inhibition; cited from earlier work.
The test system of data set [4] is rhubarb-induced spleen deficiency. On the set-up: method as in PMID 24815219. As to conditions: rhubarb-induced spleen deficiency in rats; cited from earlier work.
A short description of data set [5]: Freeze-thaw stability in rat plasma. The format is in vitro ADME. As to conditions: for One Time Measured C / Two Time Measured C / Zero Time Measured C: freeze-thaw (−20 °C / room temperature); for RE: freeze-thaw stability. As for the experimental part:
[…] Unextracted QC samples of the four compounds at low, medium, and high concentrations were kept at ambient temperature (25 °C) for 6 h to determine the short-term stability of the compounds in rat plasma. The samples were processed and analyzed, and then the concentrations were compared with the nominal values of the QC samples. […] In each cycle, the QC samples were stored at −20 °C for 24 h and thawed unassisted at room temperature. When completely thawed, the samples were refrozen within 24 h. […] Stability was assessed by comparing the mean concentration of the stored QC samples with the mean concentration of freshly prepared QC samples.

A short description of data set [6]: Short-term stability in rat plasma at room temperature. Particulars: for RE: room temperature stability; for 0 h Measured C / 4 h Measured C / 6 h Measured C: room temperature. It counts as in vitro ADME. As to the method:
The stabilities of atractylenolides I, II, and III, and atractyloside A in rat plasma were evaluated at three different QC concentrations using six replicates under two conditions, including at 25 °C for 6 h, and three freeze and thaw cycles. Unextracted QC samples of the four compounds at low, medium, and high concentrations were kept at ambient temperature (25 °C) for 6 h to determine the short-term stability of the compounds in rat plasma. The samples were processed and analyzed, and then the concentrations were compared with the nominal values of the QC samples. The stabilities of the plasma samples after three freeze and thaw cycles were determined. In each cycle, the QC samples were stored at −20 °C for 24 h and thawed unassisted at room temperature. When completely thawed, the samples were refrozen within 24 h. The cycle was repeated three times and the samples were analyzed after the third cycle. Stability was assessed by comparing the mean concentration of the stored QC samples with the mean concentration of freshly prepared QC samples.

On the set-up of data set [7]: method as in PMID 27019565. As to conditions: oral raw vs wheat bran-processed Atractylodis Rhizoma; cited from earlier work.
Setting [8] is: high QC: added 140 (atractylenolide I), 200 (II, III), 172 (atractyloside A) ng/mL.
Setting [9] is: low QC: added 5.6 (atractylenolide I), 8 (II, III), 6.88 (atractyloside A) ng/mL.
[10] abbreviates: medium QC: added 28 (atractylenolide I), 40 (II, III), 17.2 (atractyloside A) ng/mL.
Where [11] appears, read: rat, in vivo, po, 3.75 g/kg, rat plasma, oral raw Atractylodis Rhizoma 3.75 g/kg, mean ± SD, n = 5.
[12] abbreviates: rat, in vivo, po, 3.75 g/kg, rat plasma, oral wheat bran-processed Atractylodis Rhizoma 3.75 g/kg, mean ± SD, n = 5.

Here are results for 4 compounds from article PMC6320938 (Molecules, 2018).

The term Cmax denotes the highest concentration seen after dosing. One may read the AUC(0-t) as exposure summed from dosing to a finite time, without extrapolation to infinity. What is called AUC(0-inf) is total exposure, with the tail of the curve extrapolated. Broadly, the MRT inf is a mean duration of stay, worked out from the concentration-time curve. One may read the Tmax as the time from dosing to the highest level. A word on the half-life: it is the time in which the quantity being followed falls by half.

As for `C=C1CCC[C@]2(C)C[C@]3(O)OC(=O)C(C)=C3C[C@@H]12` [Atractylenolide III], the anti-inflammatory activity entry in data set [1] is reported as “inhibition of ear edema”. In addition, in data set [2] (rat, in vivo, po, 3.75 g/kg), the “AUC0–t” value was 284.83 ± 32.94 * h·μg/L, the Cmax stood at 113.10 ± 19.04 ng/mL, the “MRT0–∞” value came to 3.07 ± 0.31 h and the t1/2 stood at 1.81 ± 0.79 h. In data set [2] (rat, in vivo, po, 3.75 g/kg), the AUC(0-t) is 231 ± 76.8 ng·h/mL, the AUC(0-inf) came out at 233 ng·h/mL, the MRT inf amounted to 3.48 ± 0.29 h and the Tmax worked out at 1 h. The Cmax in data set [2] (rat, in vivo, po, 3.75 g/kg, Cmax) came to 87 ± 17 ng/mL. Further, in data set [2] (rat, in vivo, po, 3.75 g/kg, t1/2), the half-life was 1.56 ± 0.61 h.

Turning to `C=C1CCC[C@]2(C)C=C3OC(=O)C(C)=C3C[C@@H]12` [Atractylenolide I], the anti-inflammatory activity result in data set [1] is reported as “inhibition of ear edema”. Besides, in data set [3], the “anticancer activity (apoptosis)” value is recorded as “inducing apoptosis”. The “treatment of spleen deficiency” value in data set [4] is recorded as “can be used to treat rhubarb-induced spleen deficiency”.

Turning to `CC(C)(OC1OC(CO)C(O)C(O)C1O)C1CCC(O)(CO)C2CC(=O)C(C)(O)C2C1` (stereo not drawn) [Atractyloside A], the entries for the “One Time Measured C” value in data set [5] (setting [8]), in data set [5] (setting [9]) and in data set [5] (setting [10]) were 171.48 ng/mL, 6.38 ng/mL and 17.36 ng/mL, respectively. In addition, the “Two Time Measured C” value in data set [5] (setting [8]) is listed as 171.65 ng/mL; in data set [5] (setting [9]), 6.02 ng/mL; in data set [5] (setting [10]), 17.02 ng/mL. The figures for the “Zero Time Measured C” value in data set [5] (setting [8]), in data set [5] (setting [9]) and in data set [5] (setting [10]) were 172.73 ng/mL, 6.39 ng/mL and 17.86 ng/mL, respectively. The RE is −0.03% in data set [5] (setting [8]); −8.96% in data set [5] (setting [9]); 1.24% in data set [5] (setting [10]); −0.17% in data set [6] (setting [8]); −6.2% in data set [6] (setting [9]); −0.85% in data set [6] (setting [10]). Besides, the results for the “0 h Measured C” value in data set [6] (setting [8]), in data set [6] (setting [9]) and in data set [6] (setting [10]) were 172.31 ng/mL, 6.81 ng/mL and 17.16 ng/mL, respectively. The “4 h Measured C” value in data set [6] (setting [8]) turned out to be 171.50 ng/mL; in data set [6] (setting [9]) it was 6.41 ng/mL; in data set [6] (setting [10]), 17.02 ng/mL. Moreover, the “6 h Measured C” value in data set [6] (setting [8]) was 171.32 ng/mL; in data set [6] (setting [9]) it was 6.14 ng/mL; in data set [6] (setting [10]), 16.98 ng/mL. The “Cmax ratio, wheat bran-processed group vs raw group” value in data set [2] (rat plasma, oral 3.75 g/kg) came out at 1.20 fold. The results for the AUC(0-t) in data set [2] (setting [11]) and in data set [2] (setting [12]) were 138 ± 60.1 ng·h/mL and 307 ± 73.8 ng·h/mL, respectively. Further, the AUC(0-inf) turned out to be 167 ng·h/mL in data set [2] (rat, in vivo, po, 3.75 g/kg, Table 6, rat plasma, oral raw Atractylodis Rhizoma 3.75 g/kg); 325 ng·h/mL in data set [2] (rat, in vivo, po, 3.75 g/kg, Table 6, rat plasma, oral wheat bran-processed Atractylodis Rhizoma 3.75 g/kg); 167 ± 90.1 ng·h/mL in data set [2] (setting [11]); 325 ± 72.1 ng·h/mL in data set [2] (setting [12]). Also, the Cmax in data set [2] (rat, in vivo, po, 3.75 g/kg, Cmax, rat plasma, oral raw Atractylodis Rhizoma 3.75 g/kg, mean ± SD, n = 5) was determined as 57.8 ± 21.6 ng/mL; in data set [2] (rat, in vivo, po, 3.75 g/kg, Cmax, rat plasma, oral wheat bran-processed Atractylodis Rhizoma 3.75 g/kg, mean ± SD, n = 5), 69.4 ± 8.29 ng/mL. The MRT inf in data set [2] (setting [11]) turned out to be 6.05 ± 2.58 h; in data set [2] (setting [12]), 4.87 ± 0.84 h. Also, the Tmax was determined as 0.95 ± 0.11 h in data set [2] (setting [11]) and 1.5 h in data set [2] (setting [12]). Further, the half-life in data set [2] (rat, in vivo, po, 3.75 g/kg, t1/2, rat plasma, oral raw Atractylodis Rhizoma 3.75 g/kg, mean ± SD, n = 5) was 3.95 ± 2.22 h; in data set [2] (rat, in vivo, po, 3.75 g/kg, t1/2, rat plasma, oral wheat bran-processed Atractylodis Rhizoma 3.75 g/kg, mean ± SD, n = 5), 2.55 ± 0.98 h.

As for `C/C=C/C#CC#C/C=C/c1ccco1` [atractylodin], the “effect of stir-frying the rhizome with wheat bran on absorption” value in data set [7] is “promoted and accelerated the absorption”.
